pIC50: −log10 of the molar value. Like-named read-outs stand apart in the source and are kept apart here.
Biological target: p38α (Homo sapiens, UniProt Q16539)
Assay: p38α/MK2 cascade assay
Type: biochemical
Conditions: read-out: p38a/MK2 Cascade 40 min Pre-Incuabtion (% Inhibition): IC50
Protocol: The ability of compounds to inhibit activated p38α was determined in a p38α/MK-2 cascade assay format. The kinase activity of p38α is determined by its ability to phosphorylate/activate nonactive MK2 (54-400). Activation of MK-2 by p38α is measured by following the phosphorylation of a MK-2 specific peptide, Hsp27 peptide (FITC-KKKALSRQLSVAA). The phosphorylation of the Hsp27 peptide was quantified using the Caliper LabChip 3000. The kinase reactions were carried out in 20 mM HEPES pH 7.5, 10 mM MgCl2, 0.0005% Tween-20, 0.01% BSA, 1 mM DTT, and 2% DMSO. The inhibitors were varied between 1000-0.05 nM, while the Hsp27 peptide substrate, MgATP, and nonactive MK-2 (54-400) were held constant at 0.5 µM, 5 µM, and 1 nM, respectively. Inhibitors were preincubated with p38α for 40 minutes prior to initiating the reaction with peptide, MgATP, and MK-2. The kinase reactions were quenched after 60 minutes by the addition of stop buffer (180 mM HEPES, 30 mM EDTA, and 0.2% Coating Reagent-3).
The above protocol assay was used to determine the IC50 values for some of the compounds in the above Examples.
IC50 values were determined for the compounds listed in Table 2, using the same p38α/MK2 cascade assay used to determine the IC50 values for the compounds in Table 1. The compounds of Table 2 were prepared using methods similar to those listed in the Examples for compounds of Table 1.

[1] = Table 1, inhibitors preincubated with p38α for 40 minutes, phosphorylation of Hsp27 peptide by MK-2, Caliper LabChip 3000
[2] = Table 2, same p38α/MK2 cascade assay, 40 minutes preincubation

p38α, sequence (Q16539 whole entry): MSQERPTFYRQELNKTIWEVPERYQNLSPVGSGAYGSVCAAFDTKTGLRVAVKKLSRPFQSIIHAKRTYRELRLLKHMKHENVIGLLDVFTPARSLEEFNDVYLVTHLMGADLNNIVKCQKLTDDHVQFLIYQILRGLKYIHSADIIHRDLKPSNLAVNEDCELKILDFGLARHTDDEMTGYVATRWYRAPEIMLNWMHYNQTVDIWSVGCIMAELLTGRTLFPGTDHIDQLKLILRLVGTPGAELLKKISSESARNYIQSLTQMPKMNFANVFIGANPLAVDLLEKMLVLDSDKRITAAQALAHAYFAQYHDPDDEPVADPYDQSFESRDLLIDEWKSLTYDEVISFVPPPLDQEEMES

Structure (SMILES) | pIC50 [1] | pIC50 [2]
COC(=O)c1ccc(C)c(-n2c(C)cc(OCc3ccc(F)cc3CNC(=O)Nc3cc(C(C)(C)C)nn3-c3cccc(OC)c3)c(Cl)c2=O)c1 [Example 183, Methyl 3-{4-[(2-{[({[3-tert-butyl-1-(3-methoxyphenyl)-1H-pyrazol-5-yl]amino}carbonyl)amino]methyl}-4-fluorobenzyl)oxy]-3-chloro-6-methyl-2-oxopyridin-1(2H)-yl}-4-methylbenzoate] | 8.65 | 
COC(=O)c1ccc(C)c(-n2c(C)cc(OCc3ccc(F)cc3CNC(=O)Nc3cc(C(C)(C)C)nn3-c3ccc(O)cc3)c(Cl)c2=O)c1 [Example 232, methyl 3-{4-[(2-{[({[3-tert-butyl-1-(4-hydroxyphenyl)-1H-pyrazol-5-yl]amino}carbonyl)amino]methyl}-4-fluorobenzyl)-oxy]-3-chloro-6-methyl-2-oxopyridin-1(2H)-yl}-4-methylbenzoate] |  | 8.36
Cc1ccc(C(=O)NCCN(C)C)cc1-n1c(C)cc(OCc2ccccc2CNC(=O)Nc2cc(C(C)(C)C)nn2-c2cccc(OCCO)c2)c(Cl)c1=O [Example 240, 3-[4-{[2-({[({3-tert-butyl-1-[3-(2-hydroxyethoxy)phenyl]-1H-pyrazol-5-yl}amino)carbonyl]amino}methyl)benzyl]oxy}-3-chloro-6-methyl-2-oxopyridin-1(2H)-yl]-N-[2-(dimethylamino)-ethyl]-4-methylbenzamide] |  | 8.68
Cc1cc(OCc2ccccc2CNC(=O)Nc2cc(C(C)(C)C)nn2-c2ccc(Cl)c(O)c2)c(Cl)c(=O)n1Cc1ccc(CNC(=O)CN)cc1 [Example 272, N-[4-({4-[(2-{[({[3-tert-butyl-1-(4-chloro-3-hydroxyphenyl)-1H-pyrazol-5-yl]amino}carbonyl)amino]methyl}benzyl)oxy]-3-chloro-6-methyl-2-oxopyridin-1(2H)-yl}methyl)benzyl]-glycinamide] |  | 8.62
Cc1cc(OCc2ccccc2CNC(=O)Nc2cc(C(C)(C)C)nn2-c2ccc(F)cc2F)c(Br)c(=O)n1Cc1ccccc1 [Example 105, 1-(2-{[(1-benzyl-3-bromo-6-methyl-2-oxo-1,2-dihydropyridin-4-yl)oxy]methyl}benzyl)-3-[3-tert-butyl-1-(2,4-difluorophenyl)-1H-pyrazol-5-yl]urea] | 8.09 | 
CSc1ccccc1Cn1c(C)cc(OCc2ccccc2CNC(=O)Nc2cc(C(C)(C)C)nn2-c2cccc(O)c2)c(Cl)c1=O [Example 271, 1-[3-tert-butyl-1-(3-hydroxyphenyl)-1H-pyrazol-5-yl]-3-{2-[({3-chloro-6-methyl-1-[2-(methylthio)benzyl]-2-oxo-1,2-dihydropyridin-4-yl}oxy)methyl]benzyl}urea] |  | 7.85
Cc1ccc(C(=O)NCCO)cc1-n1c(C)cc(OCc2ccccc2CNC(=O)Nc2cc(C(C)(C)C)nn2-c2cccc(OCCO)c2)c(Cl)c1=O [Example 210, 3-[4-{[2-({[({3-tert-butyl-1-[3-(2-hydroxyethoxy)phenyl]-1H-pyrazol-5-yl}amino)carbonyl]amino}methyl)-benzyl]oxy}-3-chloro-6-methyl-2-oxopyridin-1(2H)-yl]-N-(2-hydroxyethyl)-4-methylbenzamide] |  | 8.54
COc1ccc(Cn2c(C)cc(OCc3ccccc3CNC(=O)Nc3cc(C(C)(C)C)nn3-c3ccc(O)cc3)c(C)c2=O)cc1C#N [Example 253, 1-[3-tert-butyl-1-(4-hydroxyphenyl)-1H-pyrazol-5-yl]-3-[2-({[1-(3-cyano-4-methoxybenzyl)-3,6-dimethyl-2-oxo-1,2-dihydropyridin-4-yl]oxy}methyl)benzyl]urea] |  | 8.08
COC(=O)c1ccc(C)c(-n2c(C)cc(OCc3ccc(F)cc3CNC(=O)Nc3cc(C(C)(C)C)nn3-c3cccc(O)c3)c(Cl)c2=O)c1 [Example 203, methyl 3-{4-[(2-{[({[3-tert-butyl-1-(3-hydroxy-phenyl)-1H-pyrazol-5-yl]amino}-carbonyl)amino]-methyl}-4-fluorobenzyl)oxy]-3-chloro-6-methyl-2-oxopyridin-1(2H)-yl}-4-methylbenzoate] |  | 8.55
COc1ccc(Cn2c(C)cc(OCc3ccccc3CNC(=O)Nc3cc(C(C)(C)C)nn3-c3ccc(Cl)c(O)c3)c(C)c2=O)cc1C#N [Example 251, 1-[3-tert-butyl-1-(4-chloro-3-hydroxyphenyl)-1H-pyrazol-5-yl]-3-[2-({[1-(3-cyano-4-methoxybenzyl)-3,6-dimethyl-2-oxo-1,2-dihydropyridin-4-yl]oxy}methyl)benzyl]urea] |  | 8.08

Next, values leading:

pIC50 [1] | pIC50 [2] | Structure (SMILES)
 | 8.74 | Cc1ccc(C(=O)NCCN(C)C)cc1-n1c(C)cc(OCc2ccccc2CNC(=O)Nc2cc(C(C)(C)C)nn2-c2ccc(Cl)c(O)c2)c(Cl)c1=O [Example 231, 3-{4-[(2-{[({[3-tert-butyl-1-(4-chloro-3-hydroxyphenyl)-1H-pyrazol-5-yl]amino}carbonyl)amino]methyl}benzyl)oxy]-3-chloro-6-methyl-2-oxopyridin-1(2H)-yl}-N-[2-(dimethylamino)-ethyl]-4-methylbenzamide]
 | 6.92 | CSc1ccccc1Cn1c(C)cc(OCc2ccccc2CNC(=O)Nc2cc(C(C)(C)C)nn2-c2ccc(Cl)c(O)c2)c(Cl)c1=O [Example 273, 1-[3-tert-butyl-1-(4-chloro-3-hydroxyphenyl)-1H-pyrazol-5-yl]-3-{2-[({3-chloro-6-methyl-1-[2-(methylthio)benzyl]-2-oxo-1,2-dihydropyridin-4-yl}oxy)methyl]benzyl}urea]
8.24 |  | COc1cccc(Cn2c(C)cc(OCc3ccccc3CNC(=O)Nc3cc(C(C)(C)C)nn3-c3ccc(O)cc3)c(Cl)c2=O)c1 [Example 51, 1-[3-tert-butyl-1-(4-hydroxyphenyl)-1H-pyrazol-5-yl]-3-[2-({[3-chloro-1-(3-methoxybenzyl)-6-methyl-2-oxo-1,2-dihydropyridin-4-yl]oxy}methyl)benzyl]urea]
 | 8.00 | COc1ccccc1Cn1c(C)cc(OCc2ccccc2CNC(=O)Nc2cc(C(C)(C)C)nn2-c2ccc(O)cc2)c(Cl)c1=O [Example 246, 1-[3-tert-butyl-1-(4-hydroxyphenyl)-1H-pyrazol-5-yl]-3-[2-({[3-chloro-1-(2-methoxybenzyl)-6-methyl-2-oxo-1,2-dihydropyridin-4-yl]oxy}methyl)benzyl]urea]
 | 8.68 | CNC(=O)c1ccc(C)c(-n2c(C)cc(OCc3ccccc3CNC(=O)Nc3cc(C(C)(C)C)nn3-c3ccc(O)cc3)c(Cl)c2=O)c1 [Example 214, 3-{4-[(2-{[({[3-tert-butyl-1-(4-hydroxyphenyl)-1H-pyrazol-5-yl]amino}carbonyl)amino]methyl}benzyl)oxy]-3-chloro-6-methyl-2-oxopyridin-1(2H)-yl}-N,4-dimethylbenzamide]
 | 7.69 | COc1ccccc1Cn1c(C)cc(OCc2ccccc2CNC(=O)Nc2cc(C(C)(C)SC)nn2-c2cccc(O)c2)c(Cl)c1=O [Example 276, 1-[2-({[3-chloro-1-(2-methoxybenzyl)-6-methyl-2-oxo-1,2-dihydropyridin-4-yl]oxy}methyl)benzyl]-3-{1-(3-hydroxyphenyl)-3-[1-methyl-1-(methylthio)ethyl]-1H-pyrazol-5-yl}ure]
 | 8.64 | Cc1ccc(C(=O)NCCN(C)C)cc1-n1c(C)cc(OCc2ccccc2CNC(=O)Nc2cc(C(C)(C)C)nn2-c2ccc(O)c(Cl)c2)c(Cl)c1=O [Example 229, 3-{4-[(2-{[({[3-tert-butyl-1-(3-chloro-4-hydroxyphenyl)-1H-pyrazol-5-yl]amino}carbonyl)amino]methyl}benzyl)oxy]-3-chloro-6-methyl-2-oxopyridin-1(2H)-yl}-N-[2-(dimethylamino)-ethyl]-4-methylbenzamide]

Reference: patent US20090270350A1, “Pyridinone Pyrazole Urea and Pyrimidinone Pyrazole Urea Derivatives” (PFIZER INC., priority 2006, published 2009)
